Source: article PMC5903252 (British Journal of Clinical Pharmacology, 2018)

Columns and labels:
[1] = Safety and tolerability, adverse events in healthy subjects; assay type: in vivo, human
[2] = Plasma pharmacokinetics of BMS-962212 after IV infusion; settings: human, in vivo

With `CN1CCN(c2cccc3c2CCN(C(=O)/C=C/c2c(-n4cnnn4)ccc(Cl)c2F)[C@@H]3C(=O)Nc2ccc(C(=O)O)cc2)C(=O)C1` [BMS‐962212] the tolerability ([1]; 2-h and 5-day IV infusions, healthy subjects) was “well tolerated”, the “AE frequency: ecchymosis” value ([1]; BMS-962212 groups) was 1.4% and the “AE frequency: flatulence” value ([1]; BMS-962212 groups) was 1.4%. For the same compound, the “AE frequency: headache” value ([1]; BMS-962212 groups) was 2.9%, the “AE frequency: infusion site pain or irritation” value ([1]; BMS-962212 groups) was 5.9% and the “AE frequency: nausea” value ([1]; BMS-962212 groups) was 2.9%. For the same compound, the “AE frequency: upper respiratory tract infection” value ([1]; BMS-962212 groups) was 2.9%, the “frequency of AEs” value ([1]; Japanese subjects) was 17.6% and the “subjects reporting AEs” value ([1]; all subjects assigned to BMS-962212 (12 of 68)) was 17.6%. The maximum tolerated dose ([1]; no dose-limiting AEs observed) was “not established”, the “frequency of AEs” value ([1]; non-Japanese subjects) was 29.4% and the “subjects reporting AEs” value ([1]; part A, subjects assigned to BMS-962212 (four of 34)) was 11.7%. For the same compound, the “subjects reporting AEs” value ([1]; part B, subjects assigned to BMS-962212 (eight of 34)) was 23.5%, the bleeding ([1]; parts A and B) was “no signs of bleeding” and the “deaths or serious AEs” value ([1]; parts A and B) was “No deaths or serious AEs were reported”. For the same compound, the Tmax [2] was 1 to 2 h, the half-life ([2]; 1 mg, t 1/2, part B 1 mg h^−1, Japanese ethnicity (n = 4), mean (CV%)) was 7.32 h and the half-life ([2]; 1 mg, t 1/2, part B 1 mg h^−1, Non-Japanese ethnicity (n = 4), mean (CV%)) was 5.3 h. It also gave a half-life ([2]; 3 mg, t 1/2, part B 3 mg h^−1, Japanese ethnicity (n = 4), mean (CV%)) of 6.42 h, a half-life ([2]; 3 mg, t 1/2, part B 3 mg h^−1, Non-Japanese ethnicity (n = 4), mean (CV%)) of 6.05 h and a half-life ([2]; 9 mg, t 1/2, part B 9 mg h^−1, Japanese ethnicity (n = 4), mean (CV%)) of 8.28 h. The half-life ([2]; 9 mg, t 1/2, part B 9 mg h^−1, Non-Japanese ethnicity (n = 4), mean (CV%)) was 8.32 h, the half-life ([2]; 20 mg, t 1/2, part B 20 mg h^−1, Japanese ethnicity (n = 4), mean (CV%)) was 8.28 h and the half-life ([2]; 20 mg, t 1/2, part B 20 mg h^−1, Non-Japanese ethnicity (n = 4), mean (CV%)) was 7.23 h. For the same compound, the AUC(0-inf) ([2]; iv, 1 mg h^−1) was 6380 ng·h/mL, the AUC(0-t) ([2]; iv, 1 mg h^−1) was 6300 ng·h/mL and the Cmax ([2]; iv, 1 mg h^−1) was 58.3 ng/mL. For the same compound, the Tmax ([2]; iv, 1 mg h^−1) was 24 h, the clearance ([2]; iv, 1 mg h^−1, CL, part B 5-day IV infusion 1 mg h^−1, geometric mean (CV%)) was 314 mL/min and the Vd ([2]; iv, 1 mg h^−1, Vz, part B 5-day IV infusion 1 mg h^−1, geometric mean (CV%)) was 188 L. For the same compound, the half-life ([2]; iv, 1 mg h^−1, t1/2, part B 5-day IV infusion 1 mg h^−1, geometric mean (CV%)) was 6.25 h, the AUC(0-inf) ([2]; iv, 1.5 mg h^−1) was 180 ng·h/mL and the AUC(0-t) ([2]; iv, 1.5 mg h^−1) was 122 ng·h/mL. It also gave a Cmax ([2]; iv, 1.5 mg h^−1) of 81.9 ng/mL, a Tmax ([2]; iv, 1.5 mg h^−1) of 1.5 h and a clearance ([2]; iv, 1.5 mg h^−1, CL, part A 2-h IV infusion 1.5 mg h^−1, geometric mean (CV%)) of 276 mL/min. For the same compound, the Vd ([2]; iv, 1.5 mg h^−1, Vz, part A 2-h IV infusion 1.5 mg h^−1, geometric mean (CV%)) was 72.6 L, the half-life ([2]; iv, 1.5 mg h^−1, t1/2, part A 2-h IV infusion 1.5 mg h^−1, geometric mean (CV%)) was 2.04 h and the AUC(0-inf) ([2]; iv, 3 mg h^−1) was 21400 ng·h/mL. It also gave an AUC(0-t) ([2]; iv, 3 mg h^−1) of 21200 ng·h/mL, a Cmax ([2]; iv, 3 mg h^−1) of 202 ng/mL and a Tmax ([2]; iv, 3 mg h^−1) of 60 h. For the same compound, the clearance ([2]; iv, 3 mg h^−1, CL, part B 5-day IV infusion 3 mg h^−1, geometric mean (CV%)) was 280 mL/min, the Vd ([2]; iv, 3 mg h^−1, Vz, part B 5-day IV infusion 3 mg h^−1, geometric mean (CV%)) was 165 L and the half-life ([2]; iv, 3 mg h^−1, t1/2, part B 5-day IV infusion 3 mg h^−1, geometric mean (CV%)) was 6.22 h. It also gave an AUC(0-inf) ([2]; iv, 4 mg h^−1) of 377 ng·h/mL, an AUC(0-t) ([2]; iv, 4 mg h^−1) of 233 ng·h/mL and a Cmax ([2]; iv, 4 mg h^−1) of 182 ng/mL. The Tmax ([2]; iv, 4 mg h^−1) was 2 h, the clearance ([2]; iv, 4 mg h^−1, CL, part A 2-h IV infusion 4 mg h^−1, geometric mean (CV%)) was 358 mL/min and the Vd ([2]; iv, 4 mg h^−1, Vz, part A 2-h IV infusion 4 mg h^−1, geometric mean (CV%)) was 118 L. The half-life ([2]; iv, 4 mg h^−1, t1/2, part A 2-h IV infusion 4 mg h^−1, geometric mean (CV%)) was 3.95 h, the AUC(0-inf) ([2]; iv, 9 mg h^−1) was 55500 ng·h/mL and the AUC(0-t) ([2]; iv, 9 mg h^−1) was 54800 ng·h/mL. For the same compound, the Cmax ([2]; iv, 9 mg h^−1) was 520 ng/mL, the Tmax ([2]; iv, 9 mg h^−1) was 36 h and the clearance ([2]; iv, 9 mg h^−1, CL, part B 5-day IV infusion 9 mg h^−1, geometric mean (CV%)) was 324 mL/min. For the same compound, the Vd ([2]; iv, 9 mg h^−1, Vz, part B 5-day IV infusion 9 mg h^−1, geometric mean (CV%)) was 216 L, the half-life ([2]; iv, 9 mg h^−1, t1/2, part B 5-day IV infusion 9 mg h^−1, geometric mean (CV%)) was 8.65 h and the AUC(0-inf) ([2]; iv, 10 mg h^−1) was 1050 ng·h/mL. For the same compound, the AUC(0-t) ([2]; iv, 10 mg h^−1) was 664 ng·h/mL, the Cmax ([2]; iv, 10 mg h^−1) was 505 ng/mL and the Tmax ([2]; iv, 10 mg h^−1) was 2 h. For the same compound, the clearance ([2]; iv, 10 mg h^−1, CL, part A 2-h IV infusion 10 mg h^−1, geometric mean (CV%)) was 320 mL/min, the Vd ([2]; iv, 10 mg h^−1, Vz, part A 2-h IV infusion 10 mg h^−1, geometric mean (CV%)) was 126 L and the half-life ([2]; iv, 10 mg h^−1, t1/2, part A 2-h IV infusion 10 mg h^−1, geometric mean (CV%)) was 4.68 h. It also gave an AUC(0-inf) ([2]; iv, 20 mg h^−1) of 126000 ng·h/mL.
